From article PMC11541474, “Toward New Therapeutics for Visceral Leishmaniasis: Efficacy and Mechanism of Action of Amides Inspired by Gibbilimbol B” (ACS Omega, 2024)

Experiments:
Type in all cases: cell-based, Leishmania (L.) infantum
[1] = test system: L. (L.) infantum promastigotes; assay: intracellular Ca2+ levels, Fura-2 AM; conditions: 9 at 141.5 μM, 10 at 110.1 μM
From the text: Compounds that affect intracellular Ca^2+ balance in Leishmania may cause changes in the mechanism of transport of these ions in trypanosomatids.[26] In Leishmania spp., Ca^2+ regulation involves the endoplasmic reticulum, the mitochondria, and the acidocalcisomes;[27],[28] increases in this intracellular ion can trigger processes such as apoptosis that led to the death of the parasite.[29] The Fura-2 AM marker was used to measure intracellular Ca^2+ levels in Leishmania (L.) infantum promastigotes. Fura-2 has a high affinity for Ca^2+, which results in the formation of fluorescent intracellular complexes that are proportional to intracellular Ca^2+ levels.[30] […] (Triton X-100) at all monitored times. […] Compound 10 induced similar levels of fluorescence to those induced by compound 9 but at a slower rate, as these levels were observed after 200 min of incubation.  Figure 7 Intracellular Ca^2+ levels in L. (L.) infantum treated with (A) compound 9 (141.5 μM) or (B) compound 10 (110.1 μM). Results were obtained using the Fluo-4 AM dye (excitation and emission at 485 and 535 nm, respectively). Untreated and treated with Triton X-100 (0.5% v/v) parasites were used as negative and positive controls, respectively. Fluorescence is represented as a percentage relative to the untreated control at 0 min (100%).***p < 0.0001. Measurements of intracellular Ca^2+ levels were conducted as previously reported.[49] Briefly, promastigotes were pretreated with Fura-2 AM (Molecular Probes) in PBS, washed and treated with compounds 9 (141.5 μM) or 10 (110.1 μM). Fluorescence was measured using a microplate reader (FilterMax […]-Mode, Molecular Devices) with excitation and emission at 360 and 500 nm, respectively. Untreated and treated parasites (0.5% Triton X-100) were used as negative and positive controls, respectively.

[2] = test system: L. (L.) infantum promastigotes
From the text: Changes in the plasma membrane integrity of Leishmania spp. can lead to cell death due to pore formation, pH imbalance, and nutrient-transport failure. Initially, the fluorescent probe Sytox Green was employed to analyze the permeability of the plasma membrane. […] Untreated parasites were used as a negative control for normalization (0% permeabilization) whereas the nonionic surfactant Triton X-100 was used for as positive control (100% permeabilization).
Figure 4 Plasma membrane permeability in L. (L.) infantum promastigotes after 4 h of treatment with compound (A) 9 (141.5 μM) or (B) 10 (110.1 μM), using the fluorescent probe Sytox Green (p < 0.0001). Negative control: untreated parasites; positive control: Triton X-100 (TX-100).
Assays for determination of plasma membrane integrity of L. (L.) infantum were conducted as previously reported.[46] Briefly, compounds 9 (141.5 μM) and 10 (110.1 μM) were added to different wells and the resulting fluorescence was measured using a fluorimetric microplate reader (FilterMax F5Multi-Mode, Molecular Devices). Triton X-100 (0.5%, v/v) and untreated parasites were used as positive negative controls, respectively.[47]

[3] = test system: L. (L.) infantum promastigotes; assay: in vitro activity against promastigote forms of L. (L.) infantum; conditions: Leishmania infantum; L. (L.) infantum promastigotes; read-out: Ec50 Promastigote (μm) ± SD
Protocol: (§1) Evaluation of in vitro activity against promastigote and amastigote forms of L. (L.) infantum was performed as previously reported assays.[40]−[43] The CC50 and EC50 values were calculated using sigmoidal dose–response curves using Graph Pad Prism 5.0 software. One-way ANOVA testing with Tukey’s multiple comparison tests were used for evaluation of the statistical significance (p-value) of differences between the samples, which were tested in duplicate and all assays were repeated at least twice.

[4] = test system: L. (L.) infantum promastigotes; conditions: 9 at 141.5 μM, 10 at 110.1 μM, after 240 min
Protocol: Figure 5 Evaluation of ROS in promastigotes of L. (L.) infantum treated with compounds 9 (141.5 μM) or 10 (110.1 μM). […]
Measurements of ROS were conducted as previously reported.[48] Briefly, promastigotes were treated with compounds 9 (141.5 μM) or 10 (110.1 μM) in HBSS+Glu at 24 °C using H2DCFDA (Molecular Probes). Fluorescence was measured using a fluorimetric microplate reader (FilterMax F5Multi-Mode, Molecular Devices) with excitation and emission filters at 485 and 520 nm, respectively.[48] Untreated and treated parasites (H2O2 - 40 μM) were used as negative and positive controls, respectively.

[5] = test system: L. (L.) infantum promastigotes; assay: acidocalcisome alterations, acridine orange; conditions: 9 at 141.5 μM (20 min), 10 at 110.1 μM (significant from 60 min onward)
From the text: Acidocalcisomes are intracellular organelles that are characterized by acidity and high calcium concentrations due to the proton and calcium pumps.[33] In trypanosomatids, these organelles are rich in short-chain polyphosphates and occupy a small proportion (1 to 2%) of each cell’s volume.[34] In these parasites, the acidocalcisomes are responsible for capturing and storing calcium in large quantities, which is essential for cellular functioning.[35] In our study, we investigated possible changes resulting from treatment with compounds in acidocalcisomes, especially concerning intracellular calcium. Acridine orange was used as a fluorescent probe to evaluate changes in the acidocalcisomes of L. (L.) infantum promastigotes. Alkalinization of these organelles results in the release of the probe, altering the fluorescence.[36] […] These effects were compared with those of the positive (nigericin) and negative (untreated parasites) controls. Figure 8 Acidocalcisome alkalization in L. (L.) infantum treated with compounds 9 (141.5 μM - A) or 10 (110.1 μM - B). […] Fluorescence is represented as a percentage of the fluorescence in the positive control with nigericin at 20 min (100%). ***p = 0.003, **p = 0.0021, **p = 0.05. […] The fluorescence was measured in a spectrofluorimeter with excitation an emission at […], respectively. […]

[6] = test system: L. (L.) infantum intracellular amastigotes; assay: ex-vivo assay using intracellular amastigotes of L. (L.) infantum; conditions: for S.I. amastigote (selectivity index): CC50 against NCTC cells/EC50 against amastigotes; for EC50: Leishmania infantum, L. (L.) infantum intracellular amastigotes, read-out: Ec50 Amastigote (μm) ± SD
Protocol: as §1

SMILES	incubation time at which Ca^2+ levels approached those of the positive control (Triton X-100) [1]	intracellular Ca^2+ concentration compared with untreated parasites [1]	permeabilization of the plasma membrane (Sytox Green) [2]	EC50 [3]	ROS levels compared with negative control (H2DCFDA) [4]	effect on acidocalcisomes (acridine orange fluorescence) [5]	S.I. amastigote (selectivity index) [6]	EC50 [6]
CCCCC(CC)CNC(=O)c1ccc(Cl)cc1 (stereo not shown) [Compound 9, N-(2-Ethylhexyl)-4-chlorobenzamide]	≤ 20 min	increased the intracellular Ca^2+ concentration	did not induce permeabilization of the membrane	41.9 ± 2.1 µM	significantly reduced ROS levels	alkalinization of the acidocalcisomes	>15.7	12.7 ± 4.9 µM
CCCCC(CC)CNC(=O)c1ccc([N+](=O)[O-])cc1 (stereo not shown) [Compound 10, N-(2-Ethylhexyl)-4-nitrobenzamide]	200 min	increased the intracellular Ca^2+ concentration	did not induce permeabilization of the membrane	44.3 ± 0.4 µM	significantly reduced ROS levels	progressive and continuous acidification of these organelles	>16.4	12.2 ± 7.2 µM
